Numbered stars: 1 amine (or outer) side, 2 acyl side, 3 side chain; on linkers, the order of the positions; unused ones are H or OH. Bridge positions count the residues as written; N and C are the ends. Square brackets hold non-standard residues; d marks the D form. Peptide text beside a SMILES is read from it. I, II: the chains in the order shown. Actinocin(9to1) = Cc1c2oc3c(C)ccc(C(=O)[*:1])c3nc-2c(C(=O)[*:2])c(N)c1=O; NMeV = CN[C@H](C(=O)O)C(C)C; Sar = CNCC(=O)O
What was measured:
Assay type in all cases: cell-based, human
HCT116 cells [1] = conditions: for inhibition of SUS-induced apoptosis: co-treatment with SUS 125 μM (CHX 10 μM; PGE2 10 μM)
Method: FIGS. 1A, 1B and 1C NSAID induce apoptosis in human colorectal cancer cells. In FIG. […] Cells were collected at the indicated times, fixed and stained with Hoechst 33258 (23). The cells were counted and those with fragmented nuclei were scored as apoptotic. In FIG. 1B, HCT116 and SW480 cells were treated with SUS or INDO for 60 hours, harvested and stained as described above. Cells treated with SUS or INDO show the hallmarks of apoptosis.
(§1) This death appeared to be apoptotic, as it was accompanied by nuclear condensation and fragmentation (FIG. 1B) and exposure of phosphatidylserine groups on the cell surface, two hallmarks of apoptosis (11, 12).

SW480 cells [2] = conditions: for inhibition of SUS-induced apoptosis: co-treatment with SUS 200 μM (CHX 10 μM; PGE2 10 μM); for effect on apoptosis: 200 μM fatty acid, 48 hours
SW480 cells [3] = experiment: Ceramide levels, E. coli diacylglycerol (DAG) kinase assay; conditions: for effect on ceramide levels: 48 hours
Method: (§2) Cells were harvested and ceramide was quantified. The first lane of each panel corresponds to a ceramide standard (ceramide type III, Sigma). […] HCT116 and SW480 cells were treated with SUS or INDO as indicated. Ceramide levels were determined as described above. […] Control cells were treated with DMSO vehicle only. Cells were harvested at the indicated times following treatment and ceramide levels were determined as described above. The data are plotted as the mean of at least two experiments with the error bars corresponding to the standard deviation.
(§3) Ceramide levels were measured using the Escherichia coli diacylglycerol (DAG) kinase assay as previously described (30) with the following modifications. After the initial lipid extraction, phases were broken by adding 2 ml chloroform and 2 ml 1M NaCl and lipids were washed with 1M NaCl prior to drying under nitrogen (32, 33). After solubilization, samples were sonicated for 15 seconds. The DAG reaction was performed for 30 minutes at 25° C. in a 100 μl reaction volume with 3.5 μg DAG kinase (Calbiochem) and […] γ^32 P-ATP (Dupont NEN, 6000 Ci/mmol). After extraction of the labeled lipids, the lower chloroform phase was washed with 1% HCl prior to drying under nitrogen. The solvent mixture for thin layer chromatography was chloroform:acetone:methanol:acetic acid:water (10:4:3:2:1). Samples were quantitated using a Phosphorimager (Molecular Dynamics).

HCT116 cells [4] = experiment: Sphingomyelin levels, bacterial sphingomyelinase method; conditions: indomethacin treatment
Method: (§4) FIGS. 4A, 4B, 4C, 4D, 4E and 4F. The role of arachidonic acid in NSAID-mediated apoptosis. […] HCT116 and SW480 cells were treated with the indicated concentrations of SUS or INDO. Arachidonic acid (AA) levels were determined by measuring release of ^3 H-AA into the media as previously described (18). Data are indicated as the mean of three replicates with the error bars corresponding to the standard deviation. In addition, the nature of the released radiolabeled material was evaluated by thin layer chromatography as previously described (28). […] HCT116 and SW480 cells were incubated with ^3 H-choline chloride (0.5 mCi ml^-1, 80 Ci mmol^-1, New England Nuclear) for 48 hours. After labeling, cells were washed with HBSS (Gibco) and treated with SUS or INDO for the indicated times. Sphingomyelin measurements were performed using the bacterial sphingomyelinase method as previously described (18). Sphingomyelin levels at each time point are plotted as a percentage of that in untreated control cells. For each point, the mean of at least two independent experiments is presented with the error bars corresponding to the standard deviations. […] SW480 cells were treated with 200 μM arachidonic acid (AA), SUS (SUS) or behenic acid as a control fatty acid (FA) as indicated. […] SW480 cells were treated with suboptimal doses (100 μM) of arachidonic acid (AA), SUS (SUS), or both (AA+SUS) as indicated. After 48 hours of treatment, apoptosis and ceramide increases were assessed as described for FIGS. 1 and 3, respectively. Ceramide increases (left axis) were expressed as fold increases relative to untreated cells. Apoptosis (right axis) was expressed as percent apoptotic cells minus percent apoptotic cells in untreated cells (5.6%+/-2.4). Data are indicated as the mean of duplicates with the error bars corresponding to the standard deviation.
(§5) To test whether the increased ceramide was associated with evidence of augmented sphingomyelinase activity, we measured total sphingomyelin levels after SUS treatment. […] We also measured neutral sphingomyelinase activity in lysates from the treated cells and no differences were found. Neutral sphingomyelinase activity was assayed as described (18). After cell lysis, protein concentrations were determined using the Bradford method (Bio-Rad) and […] cellular protein was used in each assay. Neutral sphingomyelinase activity was determined by measuring the rate of hydrolysis of ^14 C-labelled sphingomyelin (Amersham). SW480 and HCT116 cell lines were treated with SUS (50, 200, and 600 μM) for 6 to 24 hours.

SW480 cells [5] = experiment: as above; conditions: indomethacin treatment
Method: as §4, §5

HCT116 cells [6] = experiment: Arachidonic acid levels, release of 3H-AA into the media
Method: as §4
(§6) Arachidonic acid is known to stimulate neutral sphingomyelinase (18), which catalyzes the conversion of sphingomyelin to ceramide. We therefore considered the possibility that inhibition of COX activity might lead to increases in arachidonic acid, the substrate for COX. To test this hypothesis, we first determined whether SUS stimulated arachidonic acid accumulation. In both SW480 and HCT 116 cells, apoptosis-inducing doses of SUS increased arachidonic acid by 2 to 3 fold at 24 hours and by approximately 5 fold at 48 hours (FIGS. 4A and 4B). The arachidonic acid increase following SUS treatment was as great as that following treatment with mellitin, a known activator of phospholipase A2. Arachidonic acid levels in HCT116 cells increased 3.5 fold one hour after treatment with 1 μM mellitin. Likewise, arachidonic acid levels increased 2.9 fold in SW480 cells one hour after mellitin treatment. Arachidonic acid (AA) levels were determined by measuring release of ^3 H-AA into the media as previously described (18). The nature of released radiolabeled material was evaluated by thin layer chromatography analysis as previously described (28).

HCT116 cells [7] = experiment: Ceramide levels, E. coli diacylglycerol (DAG) kinase assay; conditions: indomethacin treatment
Method: as §2, §3

SW480 cells [8] = experiment: cells; conditions: for increase in arachidonic acid: sw480 cells
Method: as §4, §6

SW480 cells [9] = conditions: indomethacin treatment
Method: FIGS. 1A, 1B and 1C NSAID induce apoptosis in human colorectal cancer cells. In FIG. 1A, HCT116 and SW480 cells were treated with indomethacin (INDO) (300 μM) or SUS (125 μM for HCT116 and 200 μM for SW480 cells). Cells were collected at the indicated times, fixed and stained with Hoechst 33258 (23). The cells were counted and those with fragmented nuclei were scored as apoptotic. In FIG. 1B, HCT116 and SW480 cells were treated with SUS or INDO for 60 hours, harvested and stained as described above. Cells treated with SUS or INDO show the hallmarks of apoptosis.
as §1

Cc1c2oc3c(C)ccc(C(=O)N[C@@H]4C(=O)N[C@H](C(C)C)C(=O)N5CCC[C@H]5C(=O)N(C)CC(=O)N(C)[C@@H](C(C)C)C(=O)O[C@@H]4C)c3nc-2c(C(=O)N[C@@H]2C(=O)N[C@H](C(C)C)C(=O)N3CCC[C@H]3C(=O)N(C)CC(=O)N(C)[C@@H](C(C)C)C(=O)O[C@@H]2C)c(N)c1=O [actinomycin D] (I: T[dV]P[Sar][NMeV] / II: T[dV]P[Sar][NMeV]; ester I:1-I:C, II:1-II:C; linker I:N-II:N via Actinocin(9to1))
inhibition of SUS-induced apoptosis (HCT116 cells [1]): completely inhibit apoptosis | inhibition of SUS-induced apoptosis (SW480 cells [2]): completely inhibit apoptosis

CCCCC/C=C\C/C=C\C/C=C\C/C=C\CCCC(=O)O [arachidonic acid]
effect on apoptosis (SW480 cells [2]): a potent inducer of ceramide and apoptosis | effect on ceramide levels (SW480 cells [3]; 200 μM fatty acid): a potent inducer of ceramide and apoptosis | effect on ceramide levels (SW480 cells [3]; suboptimal doses, 100 μM each, separately or together): little effect on ceramide levels

CCCCCCCCCCCCCCCCCCCCCC(=O)O [behenic acid]
effect on apoptosis (SW480 cells [2]): virtually no effect on ceramide levels and apoptosis | effect on ceramide levels (SW480 cells [3]; 200 μM fatty acid): virtually no effect on ceramide levels and apoptosis

C[C@@H]1C[C@@H]([C@H](O)CC2CC(=O)NC(=O)C2)C(=O)[C@@H](C)C1 [cycloheximide]
inhibition of SUS-induced apoptosis (HCT116 cells [1]): completely inhibit apoptosis | inhibition of SUS-induced apoptosis (SW480 cells [2]): completely inhibit apoptosis | inhibition of SW480 cell death (SW480 cells [2]; higher concentrations of SUS): could not inhibit

COc1ccc2c(c1)c(CC(=O)O)c(C)n2C(=O)c1ccc(Cl)cc1 [indomethacin]
activation of sphingomyelin hydrolysis compared with SUS (HCT116 cells [4]): to similar degrees as SUS | activation of sphingomyelin hydrolysis compared with SUS (SW480 cells [5]): to similar degrees as SUS | increase of arachidonic acid concentration compared with SUS (HCT116 cells [6]; indomethacin treatment): to similar degrees as SUS | induction of apoptosis compared with SUS (HCT116 cells [1]; indomethacin treatment): to similar degrees as SUS | increase of ceramide concentration compared with SUS (HCT116 cells [7]): to similar degrees as SUS | increase in ceramide levels (SW480 cells [3]; indomethacin treatment): 6 fold | increase of ceramide concentration compared with SUS (SW480 cells [3]; indomethacin treatment): to similar degrees as SUS | increase of arachidonic acid concentration compared with SUS (SW480 cells [8]; indomethacin treatment): to similar degrees as SUS | increase in arachidonic acid (SW480 cells [8]): 3-4 fold | induction of apoptosis compared with SUS (SW480 cells [9]): to similar degrees as SUS | cells induced to undergo apoptosis (SW480 cells [9]; cycloheximide sensitive): 94%

CCCCC[C@H](O)/C=C/[C@H]1[C@H](O)CC(=O)[C@@H]1C/C=C\CCCC(=O)O [prostaglandin E2]
inhibition of SUS-induced apoptosis (HCT116 cells [1]): No inhibition of apoptosis was observed | inhibition of SUS-induced apoptosis (SW480 cells [2]): No inhibition of apoptosis was observed

ceramide
increase in arachidonic acid (HCT116 cells [6]; hct116 cells, 16 h, 100 µM): 1.5 fold | induction of apoptosis (HCT116 cells [1]; human, hct116 cells, 16 h, 100 µM): > 90% | induction of apoptosis (SW480 cells [2]; human, sw480 cells, 16 h, 100 µM): > 90% | increase in arachidonic acid (SW480 cells [8]; 16 h, 100 µM): 1.9 fold

mellitin
increase in arachidonic acid levels (HCT116 cells [6]; one hour after 1 μM mellitin): 3.5 fold | increase in arachidonic acid levels (SW480 cells [8]; one hour after mellitin treatment, 60 min): 2.9 fold
